Reference: article PMC11292009, “Mapping protein binding sites by photoreactive fragment pharmacophores” (Communications Chemistry, 2024)

Experiments:
Assay type in all cases: binding
myoglobin (Myo) = experiment: Intact protein MS photoaffinity labeling screen, myoglobin; conditions: intact protein MS after 10 min irradiation
In short: (§1)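 Labeling % derives from mass additions observed by intact protein MS on each well, measured without transfer from the plate; fragments, one per well, had been pre-incubated 15 min with protein.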

lysozyme (Lyo) = experiment: Intact protein MS photoaffinity labeling screen, lysozyme; conditions: intact protein MS after 10 min irradiation
In short: as §1

[1] = test system: carbonic anhydrase II (CA); experiment: Intact protein MS photoaffinity labeling screen, carbonic anhydrase; conditions: intact protein MS after 10 min irradiation
In short: as §1

STAT5B-NTD [2] = test system: T1, STAT5B-NTD; experiment: Intact MS labeling screen, STAT5B-NTD conjugated with photocatalyst Ir-G2-PEG3-COOH (450 nm); conditions: 450 nm 10 min;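 further: 0.14 µL of 100 mM DMSO fragment stock added to the conjugate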
T1 construct: His-SUMO (N, cleaved yes); made in house; host or cells: E. coli BL21 RILP
In short: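 Ir-G2-PEG3-COOH photocatalyst (10 eq) activated 30 min with EDC/NHS/BOP, then conjugated to STAT5B-NTD (7 µM) overnight at RT or 1 h at 37 °C in dark. PhP added, 1 h dark, then 450 nm irradiation 10 min at 4 °C; labeling read by intact LC-MS, positive ion mode, m/z 100–2000.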

BRD4-BD1 = test system: T2, BRD4-BD1; experiment: Intact MS photoaffinity labeling screen, BRD4-BD1 (302 nm, LCMS-TOF); conditions: for BRD4-BD1 (experimental hit status): PhP library sheet "PhP", binary flag printed as 0 or 1, key not given; for MS labeling percentage, BRD4: BRD4-BD1, 302 nm 10 min
T2 construct: screened the PhP library against the first bromodomain of BRD4 (BRD4-BD1); purchased GSK/GenScript
In short: (§2)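 Labeling detected as mass additions in deconvoluted intact-protein LCMS-TOF spectra. Protein at 1 μM in PBS was first mixed with one fragment per well on ice for 15 min, followed by 10 min UV exposure at 302 nm.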

STAT5B-NTD [3] = test system: T1, STAT5B-NTD; experiment: Intact MS photoaffinity labeling screen, STAT5B-NTD (365 nm, UHPLC-MS); conditions: for STAT5B-NTD (experimental hit status): PhP library sheet "PhP", binary flag printed as 0 or 1, key not given; for MS labeling percentage, STAT5B: STAT5B-NTD, 365 nm 10 min, no photocatalyst;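 on MS labeling percentage, STAT5B: 0.17 µL of 100 mM DMSO fragment stock added to the protein sample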
In short: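 UV irradiation at 365 nm for 10 min at 4 °C. Labeling read by intact-protein UHPLC-MS, positive ion mode, m/z 100–2000.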

KRas^G12D = test system: T3, KRas^G12D; experiment: Intact MS photoaffinity labeling screen, KRas G12D (302 nm, LCMS-TOF); conditions: for MS labeling percentage, KRas: KRas G12D, 302 nm 10 min; for KRAS-G12D (experimental hit status): PhP library sheet "PhP", binary flag printed as 0 or 1, key not given
T3 construct: purchased GSK/GenScript
In short: as §2

Row | Compound | MS labeling percentage, Myo (myoglobin (Myo)) [%] | MS labeling percentage, Lyo (lysozyme (Lyo)) [%] | MS labeling percentage, CA [1] [%] | MS labeling percentage, STAT5B+photocat (STAT5B-NTD [2]) [%] | BRD4-BD1 (experimental hit status) (BRD4-BD1) | STAT5B-NTD (experimental hit status) (STAT5B-NTD [3]) | MS labeling percentage, STAT5B (STAT5B-NTD [3]) [%] | MS labeling percentage, KRas (KRas^G12D) [%] | KRAS-G12D (experimental hit status) (KRas^G12D) | MS labeling percentage, BRD4 (BRD4-BD1) [%]
1 | CC1(CCC(=O)N[C@@H](Cc2cccc(F)c2)CN2C(=O)c3ccccc3C2=O)N=N1 [PhP079, Fc(c1)cccc1C[C@H](NC(=O)CCC2(C)N=N2)CN(C3=O)C(=O)c(c34)cccc4] | 0.4 | 0.3 | 0.5 | 1.2 | 0 | 0 | 0 | 0.5 | 0 | 
2 | CC1(CCC(=O)NCCc2c[nH]c3ccc(OCc4ccccc4)cc23)N=N1 [PhP081, N1=NC1(C)CCC(=O)NCCc(c[nH]2)c(c23)cc(cc3)OCc4ccccc4] | 0.3 | 2.8 | 0 | 4 | 0 | 0 | 1 | 0.5 | 0 | 0.5
3 | CC1(CCC(=O)NCc2nnc3n2CCC3)N=N1 [PhP083, N1=NC1(C)CCC(=O)NCc(nn2)n(c23)CCC3] | 0.1 | 0 | 0.4 | 0.7 | 0 | 0 | 1 | 0.2 | 0 | 0.3
4 | CC1(CCC(=O)NCCNC(=O)c2ccncc2)N=N1 [PhP084, N1=NC1(C)CCC(=O)NCCNC(=O)c2ccncc2] | 0.4 | 0 | 1.6 | 0.7 | 0 | 0 | 0 | 0.3 | 0 | 0.9
5 | CC1(CCC(=O)NC2CCc3[nH]cnc3C2)N=N1 (stereo not shown) [PhP085, N1=NC1(C)CCC(=O)NC(CC2)Cc(c23)nc[nH]3] | 0.1 | 0 | 0.4 | 1.2 | 0 | 0 | 1 | 0.3 | 0 | 0.3
6 | CC1(CCC(=O)NC(COCc2ccccc2)C(=O)OCc2ccccc2)N=N1 (stereo not shown) [PhP086, c1ccccc1COC(=O)C(NC(=O)CCC2(C)N=N2)COCc3ccccc3] | 0.2 | 0 | 0.4 | 4.6 | 0 | 0 | 0 | 0.3 | 0 | 0.2
7 | CC1(CCC(=O)Nc2ccc3oc(CN4CCCC4)nc3c2)N=N1 [PhP089, N1=NC1(C)CCC(=O)Nc2ccc3oc(CN4CCCC4)nc3c2] | 0.1 | 0 | 0.4 | 1 | 0 | 0 | 1 | 0 | 0 | 0.2
8 | Cc1nnc(C(C)NC(=O)CCC2(C)N=N2)[nH]1 (stereo not shown) [PhP090, Cc([nH]1)nnc1C(C)NC(=O)CCC2(C)N=N2] | 0.2 | 0 | 0.5 | 0.5 | 0 | 0 | 0 | 0.1 | 0 | 0.3
9 | Cn1cnc(CCNC(=O)CCC2(C)N=N2)c1 [PhP091, Cn1cnc(c1)CCNC(=O)CCC2(C)N=N2] | 0.1 | 0 | 0.7 | 0.3 | 0 | 0 | 0 | 0.2 | 0 | 0.2
10 | Cc1nnc(CNC(=O)CCC2(C)N=N2)[nH]1 [PhP093, Cc1nnc([nH]1)CNC(=O)CCC2(C)N=N2] | 0.2 | 0 | 0.5 | 0.5 | 0 | 0 | 2 | 0.3 | 0 | 0.5
11 | CC1(CCC(=O)NCCNC(=O)Nc2ccccc2)N=N1 [PhP094, N1=NC1(C)CCC(=O)NCCNC(=O)Nc2ccccc2] | 0.1 | 0.9 | 0.4 | 2.1 | 0 | 0 | 1 | 0.5 | 0 | 1.1
